Measured values taken from patent US12606552B2, “Bifunctional compound, preparation method therefor, and use thereof” (SUZHOU KINTOR PHARMACEUTICALS, INC., priority 2020, dated 2026).

Each molecule was assayed against T1, AR (Homo sapiens, UniProt P10275, T878A) (assay: Effects of compounds on AR expression in LNCaP cells (ELISA, DC50)). Conditions: 24 hours of drug treatment, AR by ELISA.
T1 sequence (P10275 1-920 T878A): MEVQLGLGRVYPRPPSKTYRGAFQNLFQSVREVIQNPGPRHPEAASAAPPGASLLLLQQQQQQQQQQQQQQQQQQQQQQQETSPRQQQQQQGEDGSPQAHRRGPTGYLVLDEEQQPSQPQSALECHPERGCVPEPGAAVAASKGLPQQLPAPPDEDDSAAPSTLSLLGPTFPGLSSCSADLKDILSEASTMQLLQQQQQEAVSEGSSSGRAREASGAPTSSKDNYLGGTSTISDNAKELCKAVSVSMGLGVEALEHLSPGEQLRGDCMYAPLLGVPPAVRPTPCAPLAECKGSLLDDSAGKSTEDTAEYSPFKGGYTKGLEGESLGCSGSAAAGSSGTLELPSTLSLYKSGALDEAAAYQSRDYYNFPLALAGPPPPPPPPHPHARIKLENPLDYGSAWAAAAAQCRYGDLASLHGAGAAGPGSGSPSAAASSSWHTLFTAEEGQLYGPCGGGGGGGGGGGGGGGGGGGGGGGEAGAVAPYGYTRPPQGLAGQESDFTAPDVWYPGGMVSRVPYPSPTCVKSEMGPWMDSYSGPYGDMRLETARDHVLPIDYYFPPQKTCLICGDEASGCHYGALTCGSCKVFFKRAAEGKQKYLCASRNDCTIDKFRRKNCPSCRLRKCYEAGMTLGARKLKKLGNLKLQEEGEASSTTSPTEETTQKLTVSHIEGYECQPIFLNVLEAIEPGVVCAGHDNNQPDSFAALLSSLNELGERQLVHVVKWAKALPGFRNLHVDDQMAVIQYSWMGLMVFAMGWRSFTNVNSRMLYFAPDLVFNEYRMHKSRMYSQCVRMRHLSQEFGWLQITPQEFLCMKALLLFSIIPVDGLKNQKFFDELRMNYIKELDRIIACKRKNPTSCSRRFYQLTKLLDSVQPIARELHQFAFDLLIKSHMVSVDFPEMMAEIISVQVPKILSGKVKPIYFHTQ
Type: cell-based
Design: Measurement of the Effects of Drugs on the Expression of AR in Cells by ELISA Method; endogenous in cells; host or cells: LNCaP
Method in brief: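 LNCaP cells at about 15,000/well were treated for 24 h with compound at 0.0001–2 μmol/L final. AR in cell lysates was measured by ELISA (OD450). Inhibition was relative to DMSO control after blank subtraction, and DC50 was calculated from it.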
Molecule `Cc1ncsc1-c1ccc(CNC(=O)[C@@H]2C[C@@H](O)CN2C(=O)[C@@H](NC(=O)COCCOc2ccc(-c3ncc(N4C(=S)N(c5ccc(C#N)c(C(F)(F)F)c5F)C(=O)C4(C)C)cc3C(F)(F)F)cc2)C(C)(C)C)cc1` [Compound A92] has a DC50 of 99.6 nM.
In the case of `CC(C)(C)[C@H](NC(=O)COCCCCOc1ccc(-c2ncc(N3C(=S)N(c4ccc(C#N)c(C(F)(F)F)c4F)C(=O)C3(C)C)cc2F)c(C(F)(F)F)c1)C(=O)N1C[C@H](O)C[C@H]1C(=O)NCc1ccccc1` [Compound A132], the DC50 is reported as 161 nM.
With `Cc1cc(C(C(=O)N2C[C@H](O)C[C@H]2C(=O)N[C@@H](CC(=O)N2CCC(Oc3ccc(-c4ncc(N5C(=S)N(c6ccc(C#N)c(C(F)(F)F)c6F)C(=O)C5(C)C)cc4F)cc3F)CC2)c2ccc(-c3scnc3C)cc2)C(C)C)on1` (stereo partly shown) [Compound A178] the DC50 was 90.5 nM.
In the case of `CC(C)(C)[C@H](NC(=O)COCCCCOc1ccc(-c2ccc(N3C(=S)N(c4ccc(C#N)c(C(F)(F)F)c4F)C(=O)C3(C)C)cn2)cc1)C(=O)N1C[C@H](O)C[C@H]1c1nc(-c2cncs2)c[nH]1` [Compound A203], the DC50 is reported as 71.9 nM.
For `CC1(C)C(=O)N(c2ccc(C#N)c(C(F)(F)F)c2F)C(=S)N1c1ccc(CCCC(=O)NCCNC(=O)COc2cccc3c2C(=O)N(C2CCC(=O)NC2=O)C3=O)nc1` (stereo not shown) [Compound A6], the DC50 was greater than 2000 nM.
In the case of `CC(C)(C)[C@H](NC(=O)COCCCCOc1c(F)cc(-c2ncc(N3C(=S)N(c4ccc(C#N)c(C(F)(F)F)c4F)C(=O)C3(C)C)cc2C(F)(F)F)cc1F)C(=O)N1C[C@H](O)C[C@H]1C(=O)NCc1ccc(C(N)=O)cc1` [Compound A116], the DC50 is reported as 370 nM.
`Cc1ncsc1-c1ccc(CNC(=O)[C@@H]2C[C@@H](O)CN2C(=O)[C@@H](NC(=O)c2ccc(CNC(=O)c3ccc(-c4ccc(N5C(=S)N(c6ccc(C#N)c(C(F)(F)F)c6F)C(=O)C5(C)C)cn4)cc3)cc2)C(C)(C)C)cc1` [Compound A60] showed a DC50 of 82.9 nM.
`COc1c(C#N)ccc(N2C(=O)C(C)(C)N(c3ccc(-c4ccc(OCCCCOCC(=O)N[C@H](C(=O)N5C[C@H](O)C[C@H]5C(=O)NCc5ccc(-c6scnc6C)cc5)C(C)(C)C)cc4)nc3)C2=S)c1F` [Compound A185] gave a DC50 of 49.8 nM.
With `Cc1ncsc1-c1ccc(CNC(=O)[C@@H]2C[C@@H](O)CN2C(=O)[C@@H](NC(=O)c2ccc(CC(=O)Nc3ccc(-c4ccc(N5C(=S)N(c6ccc(C#N)c(C(F)(F)F)c6F)C(=O)C5(C)C)cn4)cc3)cc2)C(C)(C)C)cc1` [Compound A244] the DC50 was 173 nM.
Molecule `CC(=O)O[C@@H]1C[C@@H](C(=O)NCc2ccc(-c3scnc3C)cc2)N(C(=O)[C@@H](NC(=O)COCCCCOc2c(F)cc(-c3ncc(N4C(=S)N(c5ccc(C#N)c(C(F)(F)F)c5F)C(=O)C4(C)C)cc3F)cc2F)C(C)(C)C)C1` [Compound A152] has a DC50 of 167 nM.
Molecule `Cc1ncsc1-c1cn(C)c([C@@H]2C[C@@H](O)CN2C(=O)[C@@H](NC(=O)COCCCCOc2ccc(-c3ncc(N4C(=S)N(c5ccc(C#N)c(C(F)(F)F)c5F)C(=O)C4(C)C)cc3F)c(C(F)(F)F)c2)C(C)(C)C)n1` [Compound A221] has a DC50 of 144 nM.
With `CC(C)(C)[C@H](NC(=O)COCCCCOc1ccc(-c2ncc(N3C(=S)N(c4ccc(C#N)c(C(F)(F)F)c4F)C(=O)C3(C)C)cc2F)c(C(F)(F)F)c1)C(=O)N1C[C@H](O)C[C@H]1C(=O)NCc1cnco1` [Compound A219] the DC50 was 589 nM.
`Cc1ncsc1-c1ccc(CNC(=O)[C@@H]2C[C@@H](O)CN2C(=O)[C@@H](NC(=O)CCN2CCN(C(=O)c3ccc(-c4ccc(N5C(=S)N(c6ccc(C#N)c(C(F)(F)F)c6F)C(=O)C5(C)C)cn4)cc3)CC2)C(C)(C)C)cc1` [Compound A58] showed a DC50 of 133 nM.
Molecule `Cc1ncsc1-c1cn(C)c([C@@H]2C[C@@H](O)CN2C(=O)[C@@H](NC(=O)COCCCCOc2ccc(-c3ccc(N4C(=S)N(c5ccc(C#N)c(C(F)(F)F)c5F)C(=O)C4(C)C)cn3)cc2)C(C)(C)C)n1` [Compound A220] has a DC50 of 289 nM.
Work on `Cc1ncsc1-c1ccc(CNC(=O)[C@@H]2C[C@@H](O)CN2C(=O)[C@@H](NC(=O)COCCCCN2CC=C(c3ccc(N4C(=S)N(c5ccc(C#N)c(C(F)(F)F)c5F)C(=O)C4(C)C)cn3)CC2)C(C)(C)C)cc1` [Compound A135] yielded a DC50 of 1540 nM.
`CC(C)(C)[C@H](NC(=O)COCCCCOc1ccc(-c2ncc(N3C(=S)N(c4ccc(C#N)c(C(F)(F)F)c4F)C(=O)C3(C)C)cc2F)c(C(F)(F)F)c1)C(=O)N1C[C@H](O)C[C@H]1c1nc(-c2cncs2)c[nH]1` [Compound A204] gave a DC50 of 36.4 nM.
`Cc1ncsc1-c1ccc(CNC(=O)[C@@H]2C[C@@H](O)CN2C(=O)[C@@H](NC(=O)COCC(F)(F)CCOc2ccc(-c3ccc(N4C(=S)N(c5ccc(C#N)c(C(F)(F)F)c5F)C(=O)C4(C)C)cn3)cc2)C(C)(C)C)cc1` [Compound A175] showed a DC50 of 123 nM.
With `Cc1ncsc1-c1ccc(CNC(=O)[C@@H]2C[C@@H](O)CN2C(=O)[C@@H](NC(=O)COCCOCCOc2ccc(-c3ccc(N4C(=S)N(c5ccc(C#N)c(C(F)(F)F)c5F)C(=O)C4(C)C)cn3)cc2)C(C)(C)C)cc1` [Compound A76] the DC50 was 40 nM.
`Cc1ncsc1-c1ccc(CNC(=O)[C@@H]2C[C@@H](O)CN2C(=O)[C@@H](NC(=O)CN2CCN(Cc3ccc(-c4ccc(N5C(=S)N(c6ccc(C#N)c(C(F)(F)F)c6F)C(=O)C5(C)C)cn4)cc3)CC2)C(C)(C)C)cc1` [Compound A86] gave a DC50 of 69.3 nM.
`CC1(C)C(=O)N(c2ccc(C#N)c(C(F)(F)F)c2F)C(=S)N1c1cnc(-c2ccc(OCCNC(=O)COc3cccc4c3C(=O)N(C3CCC(=O)NC3=O)C4=O)c(F)c2)c(F)c1` (stereo not shown) [Compound A39] gave a DC50 of 19.4 nM.
`Cc1ncsc1-c1ccc(CNC(=O)[C@@H]2C[C@@H](O)CN2C(=O)[C@@H](NC(=O)COCCC(F)(F)COc2ccc(-c3ncc(N4C(=S)N(c5ccc(C#N)c(C(F)(F)F)c5F)C(=O)C4(C)C)cc3F)c(C(F)(F)F)c2)C(C)(C)C)cc1` [Compound A167] showed a DC50 of 204 nM.
With `COc1c(C#N)ccc(N2C(=O)C(C)(C)N(c3cnc(-c4ccc(OC5CCN(C(=O)COc6cccc7c6C(=O)N(C6CCC(=O)NC6=O)C7=O)CC5)cc4F)c(F)c3)C2=S)c1F` (stereo not shown) [Compound A195] the DC50 was 404 nM.
Work on `Cc1ncsc1-c1ccc(CNC(=O)[C@@H]2C[C@@H](O)CN2C(=O)[C@@H](NC(=O)CCN2CCC(NC(=O)c3ccc(-c4ccc(N5C(=S)N(c6ccc(C#N)c(C(F)(F)F)c6F)C(=O)C5(C)C)cn4)cc3)C2)C(C)(C)C)cc1` (stereo partly shown) [Compound A56] yielded a DC50 of 704 nM.
Work on `Cc1ncsc1-c1ccc([C@H](C)NC(=O)[C@@H]2C[C@@H](O)CN2C(=O)[C@@H](NC(=O)COCC(F)C(F)COc2c(F)cc(-c3ncc(N4C(=S)N(c5ccc(C#N)c(C(F)(F)F)c5F)C(=O)C4(C)C)cc3F)cc2F)C(C)(C)C)cc1` (stereo partly shown) [Compound A144] yielded a DC50 of 635 nM.
For `CC(C)(C)[C@H](NC(=O)COCCCCOc1ccc(-c2ccc(N3C(=S)N(c4ccc(C#N)c(C(F)(F)F)c4F)C(=O)C3(C)C)cn2)cn1)C(=O)N1C[C@H](O)C[C@H]1C(=O)NCc1ccccc1` [Compound A128], the DC50 was 124 nM.
`CC(C)(C)[C@H](NC(=O)COCCCCOc1ccc(-c2ncc(N3C(=S)N(c4ccc(C#N)c(C(F)(F)F)c4F)C(=O)C3(C)C)cc2F)c(C(F)(F)F)c1)C(=O)N1C[C@H](O)C[C@H]1C(=O)NCc1ccc(C(N)=O)cc1` [Compound A131] gave a DC50 of 34.8 nM.
Work on `CC(C)(C)[C@H](NC(=O)COCCCCOc1ccc(-c2ccc(N3C(=S)N(c4ccc(C#N)c(C(F)(F)F)c4F)C(=O)C3(C)C)cn2)cn1)C(=O)N1C[C@H](O)C[C@H]1C(=O)NCc1ccc(C(N)=O)cc1` [Compound A127] yielded a DC50 of 89.3 nM.
For `CC(C)(C)[C@H](NC(=O)COCCCCCOc1ccc(-c2ncc(N3C(=S)N(c4ccc(C#N)c(C(F)(F)F)c4F)C(=O)C3(C)C)cc2F)cc1F)C(=O)N1C[C@H](O)C[C@H]1C(=O)NCc1ccc(C(N)=O)cc1` [Compound A117], the DC50 was 111 nM.
